Consider 25 compounds from patent publication US20240109881A1, “Heteroaryl Compounds as Ligand Directed Degraders of IRAK4” (Bristol-Myers Squibb Company, priority 2022, published 2024).

For this assay, the target named is T1, IRAK4 (Homo sapiens, UniProt Q9NWZ3).
T1 construct: endogenous in cells; host or cells: THP-1 cells
T1 sequence (Q9NWZ3 1-460): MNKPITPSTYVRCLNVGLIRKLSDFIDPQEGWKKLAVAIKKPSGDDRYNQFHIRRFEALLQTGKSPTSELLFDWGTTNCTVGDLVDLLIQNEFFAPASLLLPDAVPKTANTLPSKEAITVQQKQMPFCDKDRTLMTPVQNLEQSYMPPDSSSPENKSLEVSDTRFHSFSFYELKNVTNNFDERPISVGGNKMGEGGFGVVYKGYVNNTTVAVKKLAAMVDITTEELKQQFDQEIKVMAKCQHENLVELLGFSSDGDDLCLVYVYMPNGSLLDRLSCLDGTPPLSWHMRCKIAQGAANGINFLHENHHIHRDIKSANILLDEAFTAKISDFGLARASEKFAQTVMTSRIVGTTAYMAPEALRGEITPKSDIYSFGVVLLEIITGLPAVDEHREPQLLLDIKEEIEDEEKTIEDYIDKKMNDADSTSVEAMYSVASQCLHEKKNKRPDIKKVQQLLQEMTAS
Description: ALE THP1 HTRF (Advanced Lipoxidation End Product THP1 Homogeneous Time Resolved Fluorescence). Type of assay: cell-based. The following applies: THP1 cells. On the procedure: For Homogenous Time Resolved Fluorescence (HTRF) assays, a Cisbio HTRF kit was used, which included: Lysis Buffer #1 4×, Blocking Reagent #3 100×, 20× Antibody 1 (Anti-IRAK4 d2), 20× Antibody 2 (Anti-IRAK4 k), and Detection Buffer.
4× Lysis Buffer was stored at 4° C. For use as 1× Lysis buffer, the 4× solution was diluted with de-ionized water (distilled water, Gibco Cat. #15230279) and 100× Blocking Reagent in a 1:3:0.04 volume ratio.
20× Antibody Solution aliquots were stored in −80° C. and the Detection Buffer was stored in 4° C. For use as a 1× Antibody Solution, the 20× Antibody Solution aliquot was diluted with Detection Buffer in a 1:19 volume ratio.
Cells were lysed at room temperature for 45 min with shaking. A BCA protein assay was performed and normalization was conducted to the desired total protein concentration with 1× lysis buffer. Next, 1× Antibody Solutions were prepared by adding 380 μL Detection Buffer to 20 μL 20× Antibody Solution aliquots and mixing well. 1× Antibody Solutions were combined 1:1 and briefly vortexed. For control wells, 20 μL 1× anti IRAK4-k Antibody Solution was saved. The 384-well plate (ProxiPlate-384 Plus, Perkin Elmer Cat. #6008289) was loaded by adding 4 μL of the mixed Antibody Solution to empty wells using a single channel repeater. Using a multi-channel repeater, 16 μL lysate was added per well, and any bubbles that were formed were popped with 20 μL pipette tips and Kimwipe edges. In column 10, triplicates of each control was prepared. In wells A10, B10, and C10, buffer control was prepared by adding 16 μL Lysis Buffer and 4 μL Detection Buffer. In wells D10, E10, and F10, cryptate control was prepared by adding 16 μL Lysis Buffer, 2 μL Detection Buffer, and 2 μL 1× anti IRAK4-k Antibody Solution. In wells G10, H10, and I10, a negative control was prepared by adding 16 μL Lysis Buffer and 4 μL mixed Antibody Solution. The plate was sealed with a clear seal and covered with an aluminum lid. The plate was spun down at 800 g for 5 min and incubated in the dark at room temperature overnight. The next day, the plate was spun down at 800 g for 5 min. The samples were analyzed by a plate reader (Envision, PerkinElmer) using the Desnor 384 HTRF program.
As for `N#Cc1cnc2c(cnn2-c2cc(NC3CCCC3)c(-c3cn([C@H]4CC[C@H](CN5CCN(CC(=O)Nc6ccc(C7CCC(=O)NC7=O)cc6)CC5)CC4)nn3)cn2)c1` (some centres unmarked) [P-40, 2-(4-(((1r,4r)-4-(4-(6-(5-Cyano-1H-pyrazolo[3,4-b]pyridin-1-yl)-4-(cyclopentylamino)pyridin-3-yl)-1H-1,2,3-triazol-1-yl)cyclohexyl)methyl)piperazin-1-yl)-N-(4-(2,6-dioxopiperidin-3-yl)phenyl)acetamide], the “ALE THP1 HTRF YMIN” value stood at 20.0% and the 50% effective concentration (EC50) came out at 276 nM.

Consider `N#Cc1cnc2c(ccn2-c2cc(NC3CC3)c(C(=O)NC3CCC(CN4CCC(CNc5ccc(C6CCC(=O)NC6=O)cc5)CC4)CC3)cn2)c1` (centres unmarked) [P-42], for which the “ALE THP1 HTRF YMIN” value turned out to be 27.6% and the EC50 worked out at 123 nM.

For `N#Cc1cnc2c(cnn2-c2cc(NC3CCCC3)c(C(=O)N[C@H]3CC[C@H](CN4CCC(CCc5ccc(C6CCC(=O)NC6=O)cc5)CC4)CC3)cn2)c1` (some centres unmarked) [P-43], the “ALE THP1 HTRF YMIN” value is 14.7% and a half-maximal response (EC50) required 312 nM.

For `N#Cc1cnc2c(cnn2-c2cc(NC3CCCC3)c(-c3cn([C@H]4CC[C@H](CN5CCC(CNc6ccc(C7CCC(=O)NC7=O)cc6)CC5)CC4)nn3)cn2)c1` (some centres unmarked) [P-44], the “ALE THP1 HTRF YMIN” value worked out at 38.8% and the EC50 came to 172 nM.

Consider `N#Cc1cnc2c(cnn2-c2cc(NC3CCCC3)c(-c3cn([C@H]4CC[C@H](C(=O)N5CCC(C(=O)Nc6ccc(N7CCC(=O)NC7=O)cc6)CC5)CC4)nn3)cn2)c1` [P-45, 1-[4-[4-[6-(5-Cyanopyrazolo[3,4-b]pyridin-1-yl)-4-(cyclopentylamino)-3-pyridyl]triazol-1-yl]cyclohexanecarbonyl]-N-[4-(2,4-dioxohexahydropyrimidin-1-yl)phenyl]piperidine-4-carboxamide], for which the “ALE THP1 HTRF YMIN” value is 11.4% and the half-maximal effective concentration (EC50) stood at 28 nM.

Take `N#Cc1cnc2c(cnn2-c2cc(NC3CCCC3)c(C(=O)NC3CCC(CN4CCC(C(=O)Nc5ccc(C6CCC(=O)NC6=O)cc5)C(F)(F)C4)CC3)cn2)c1` (centres unmarked) [P-46]: the “ALE THP1 HTRF YMIN” value was 31.5% and the response was half-maximal at 74 nM (EC50).

As to `N#Cc1cnc2c(cnn2-c2cc(NC3CCCC3)c(-c3cn([C@H]4CC[C@H](CN5CCC(C(=O)Nc6ccc(C7CCC(=O)NC7=O)cc6)CC5)CC4)nn3)cn2)c1` (some centres unmarked) [P-47], the “ALE THP1 HTRF YMIN” value was determined as 14.1% and the 50% effective concentration (EC50) stood at 110 nM.

In the case of `N#Cc1cnc2c(ccn2-c2cc(NC3CCCC3)c(C(=O)NC3CCC(CCN4CCN(c5ccc(C6CCC(=O)NC6=O)cc5)CC4)CC3)cn2)c1` (centres unmarked) [P-48], the “ALE THP1 HTRF YMIN” value is 12.0% and the EC50 was determined as 99 nM.

`N#Cc1cnc2c(ccn2-c2cc(NC3CC3)c(C(=O)NC3CCC(CCN4CCN(c5ccc(C6CCC(=O)NC6=O)cc5)CC4)CC3)cn2)c1` (centres unmarked) [P-49]: the “ALE THP1 HTRF YMIN” value came out at 10.9% and the midpoint of the response, the EC50, lay at 21 nM.

For the compound `CC(C)Nc1cc(-n2ncc3cc(C#N)cnc32)ncc1C(=O)NC1CCC(CCN2CCN(c3ccc(C4CCC(=O)NC4=O)cc3)CC2)CC1` (centres unmarked) [P-50], the “ALE THP1 HTRF YMIN” value was 7.5% and the EC50 worked out at 11 nM.

For the compound `N#Cc1cnc2c(cnn2-c2cc(NC3CC3)c(C(=O)NC3CCC(CCN4CCN(c5ccc(C6CCC(=O)NC6=O)cc5)CC4)CC3)cn2)c1` (centres unmarked) [P-51], the “ALE THP1 HTRF YMIN” value is on record as 7.9% and the EC50 was determined as 9 nM.

Turning to `N#Cc1cnc2c(cnn2-c2cc(NC3CCCC3)c(C(=O)NC3CCC(CCN4CCC(Nc5cccc(C6CCC(=O)NC6=O)c5)CC4)CC3)cn2)c1` (centres unmarked) [P-52], the “ALE THP1 HTRF YMIN” value is given as 13.4% and the EC50 came out at 39 nM.

With `N#Cc1cnc2c(c1)ncn2-c1cc(NC2CCCC2)c(C(=O)N[C@H]2CC[C@H](CN3CCN(c4ccc5c(c4)C(=O)N(C4CCC(=O)NC4=O)C5=O)CC3)CC2)cn1` (some centres unmarked) [P-53], the “ALE THP1 HTRF YMIN” value amounted to 37.6% and a half-maximal response (EC50) required 1890 nM.

For `N#Cc1cnc2c(cnn2-c2cc(NC3CCCC3)c(-c3cn([C@H]4CC[C@H](CCN5CCN(c6ccc(C7CCC(=O)NC7=O)cc6)CC5)CC4)nn3)cn2)c1` (some centres unmarked) [P-54, 1-(4-(Cyclopentylamino)-5-(1-((1r,4r)-4-(2-(4-(4-(2,6-dioxopiperidin-3-yl)phenyl)piperazin-1-yl)ethyl)cyclohexyl)-1H-1,2,3-triazol-4-yl)pyridin-2-yl)-1H-pyrazolo[3,4-b]pyridine-5-carbonitrile], the “ALE THP1 HTRF YMIN” value was 14.6% and a half-maximal response (EC50) required 31 nM.

With `N#Cc1cnc2c(cnn2-c2cc(NC3CCCC3)c(-n3cc([C@H]4CC[C@H](CN5CCN(c6ccc7c(c6)C(=O)N(C6CCC(=O)NC6=O)C7)CC5)CC4)nn3)cn2)c1` (some centres unmarked) [P-55, 1-[4-(Cyclopentylamino)-5-[4-[4-[[4-[2-(2,6-dioxo-3-piperidyl)-3-oxo-isoindolin-5-yl]piperazin-1-yl]methyl]cyclohexyl]triazol-1-yl]-2-pyridyl]pyrazolo[3,4-b]pyridine-5-carbonitrile], the “ALE THP1 HTRF YMIN” value came out at 10.3% and the response was half-maximal at 15 nM (EC50).

For the compound `N#Cc1cnc2c(cnn2-c2cc(NC3CCCC3)c(C(=O)NC3CCC(CCN4CCC(c5ccc(C6CCC(=O)NC6=O)cc5)CC4)CC3)cn2)c1` (centres unmarked) [P-56], the “ALE THP1 HTRF YMIN” value was determined as 7.7% and the response was half-maximal at 426 nM (EC50).

On to `C[C@@H]1CN(c2ccc(C3CCC(=O)NC3=O)cc2)C[C@H](C)N1CCC1CCC(NC(=O)c2cnc(-n3ncc4cc(C#N)cnc43)cc2NC2CCCC2)CC1` (some centres unmarked) [P-57], for which the “ALE THP1 HTRF YMIN” value stood at 9.7% and the half-maximal effective concentration (EC50) was determined as 194 nM.

For `C[C@@H]1CN(c2ccc(C3CCC(=O)NC3=O)cc2)CCN1CCC1CCC(NC(=O)c2cnc(-n3ncc4cc(C#N)cnc43)cc2NC2CCCC2)CC1` (some centres unmarked) [P-59], the “ALE THP1 HTRF YMIN” value stood at 8.5% and the concentration for a half-maximal effect (EC50) came out at 107 nM.

In the case of `CN(CC1CCC(NC(=O)c2cnc(-n3ncc4cc(C#N)cnc43)cc2NC2CCCC2)CC1)C1CCN(c2ccc(C3CCC(=O)NC3=O)cc2)CC1` (centres unmarked) [P-60], the “ALE THP1 HTRF YMIN” value was found to be 11.3% and the EC50 came out at 945 nM.

For `N#Cc1cnc2c(cnn2-c2cc(NC3CCCC3)c(C(=O)N[C@H]3CC[C@H](CCN4CCN(c5ccc6c(c5)C(=O)N(C5CCC(=O)NC5=O)C6=O)CC4)CC3)cn2)c1` (some centres unmarked) [P-61], the “ALE THP1 HTRF YMIN” value worked out at 9.2% and the response was half-maximal at 101 nM (EC50).

Turning to `C[C@H]1CN(c2ccc(C3CCC(=O)NC3=O)cc2)CCN1CCC1CCC(NC(=O)c2cnc(-n3ncc4cc(C#N)cnc43)cc2NC2CCCC2)CC1` (some centres unmarked) [P-62], the “ALE THP1 HTRF YMIN” value came to 6.6% and the midpoint of the response, the EC50, lay at 70 nM.

Consider `N#Cc1cnc2c(cnn2-c2cc(N[C@H]3CCC[C@@H]3O)c(C(=O)NC3CCC(CCN4CCN(c5ccc(C6CCC(=O)NC6=O)cc5)CC4)CC3)cn2)c1` (some centres unmarked) [P-63], for which the “ALE THP1 HTRF YMIN” value worked out at 8.3% and a half-maximal response (EC50) required 6 nM.

As for `CC(C)CNc1cc(-n2ncc3cc(C#N)cnc32)ncc1C(=O)NC1CCC(CCN2CCN(c3ccc(C4CCC(=O)NC4=O)cc3)CC2)CC1` (centres unmarked) [P-64], the “ALE THP1 HTRF YMIN” value was found to be 10.1% and it took 30 nM to reach a half-maximal effect (EC50).

As for `CC(F)(F)CNc1cc(-n2ncc3cc(C#N)cnc32)ncc1C(=O)NC1CCC(CCN2CCN(c3ccc(C4CCC(=O)NC4=O)cc3)CC2)CC1` (centres unmarked) [P-65], the “ALE THP1 HTRF YMIN” value was determined as 7.3% and it took 10 nM to reach a half-maximal effect (EC50).

For `N#Cc1cnc2c(cnn2-c2cc(N[C@H]3CCC[C@H]3O)c(C(=O)NC3CCC(CCN4CCN(c5ccc(C6CCC(=O)NC6=O)cc5)CC4)CC3)cn2)c1` (some centres unmarked) [P-66], the “ALE THP1 HTRF YMIN” value was 11.2% and the response was half-maximal at 6 nM (EC50).
